Experimental data as given in patent publication US20120121546A1, “Method of Producing Progenitor Cells from Differentiated Cells” (priority 2009, published 2012).

System: human dermal fibroblasts
Test: Adipogenesis (Oil Red O) of fibroblasts detached with trypsin and seeded at high density
Format: cell-based
Method: After incubation for about 12-21 days in adipogenic medium, the medium is removed, and cells are fixed in 10% formaldehyde solution in aqueous phosphate buffer for at least 1 hour. Cells are then washed with 60% isopropanol and stained with a working solution of Oil Red 0 solution (in 60% isopropanol, see below for preparation) for 10 minutes. The cells are then washed several times with water, and destained in 100% isopropanol for 15 minutes. The destain solution is removed and the optical density of the solution is measured at 500-510 nm.
In a this set of experiments for producing cells having the ability to differentiate into different cell types, fibroblasts are either incubated in media without trypsin or containing trypsin and then cultured at different lengths of time under high density conditions of about 100,000 cells per well/plate or at about 3703.7 cells per mm^2 surface area of the well/plate before adherence of the cells in a high density plating medium. The cells produced by this method are then tested for their ability to differentiate into adipocytes, as determined by the accumulation of fat.
Fresh human dermal fibroblasts derived from adult skin or from foreskin are purchased from PromoCell® (Banksia Scientific Company, QLD). […]
Test cells are recovered from culture and seeded at concentrations of about 100,000 cells per well/plate or at about 3703.7 cells per mm^2 surface area of the well/plate before attachment of the cells to the plate/well directly in 200 to 400 μl high density plating medium (e.g., Medium 199 containing 170 nM insulin, 0.5 mM 3-isobutyl-1-methylxanthine, 0.2 mM indomethacin, 1 μM dexamethasone, and 15% rabbit serum) for a time and under conditions sufficient for an optimum number of progenitor cells to be produced e.g., for up to about 24 hours or until adherence is achieved, i.e., a shorter time than required for cells to become adherent and/or as determined by analysis of cell marker expression and/or by the ability of aliquots of cells to subsequently undergo differentiation. […]

## trypsin
Detached with 0.12% trypsin, seeded at about 100,000 cells per well in high density plating medium before adherence, then adipogenic medium, cells without trypsin gave no detectable adipocytes
  ability to differentiate into adipocytes: capable of differentiating into adipocytes
Numbers of fat-producing cells assayed from day 10 to day 21 in adipogenic medium
  optimum time in adipogenic medium for assuming ability to differentiate into adipocytes: 10 to 14 days
Seeding directly into high density plating medium
  time from incubation with trypsin to high density seeding at which adipocytes are apparent: ≤ 6 h
